Values of other authors as cited in patent US20110189283A1, “APPETISING MEDICAMENTS FOR ORAL ADMINISTRATION IN SOLID FORM FOR PREVENTION AND/OR TREATMENT OF CARDIAC INSUFFICIENCY IN ANIMALS” (VIRBAC, priority 2008, published 2011).

Assays:
[1] = system: phosphodiesterase type III; details: after oral administration
[2] = administered during or shortly after feeding

CC(=O)S[C@@H]1CC2=CC(=O)CC[C@]2(C)[C@H]2CC[C@@]3(C)[C@@H](CC[C@@]34CCC(=O)O4)[C@H]12 [spironolactone]
dose administered found in the feces (dogs): 70%
dose administered found in the urine (dogs): 20%
time to state of equilibrium (multiple oral administrations): 2 days
accumulation (multiple oral administrations of 2 mg per kg for 10 consecutive days): no accumulation is observed
effect of simultaneous taking of foods on bioavailability (oral): considerably increases
absorption versus amount administered (oral administration of 2 to 4 mg/kg): increases linearly
metabolism by the liver (to 7α-thiomethylspironolactone and canrenone, dogs): rapidly and completely metabolized

COc1ccc(-c2nc3ccc(C4=NNC(=O)CC4C)cc3[nH]2)cc1 (stereo not drawn) [pimobendan, 4,5-dihydro-6-[2-(4-methoxyphenyl)-1H-benzimidazol-5-yl]-5-methyl-3(2H)-pyridazinone]
duration of positive inotropic effects [1]: 8 h
effect of feeding on bioavailability [2]: considerably reduced
